Data from the kinase profiling compilation of Christmann-Franck et al. (2016).

Columns and labels:
Assay in all cases: KINOMEscan competition binding
Conditions in all cases: compound 10.0 µM
NEK7 (human) = NEK7 (human) (UniProt Q8TDX7)
IKBKB (human) = IKBKB (human) (UniProt O14920)
CAMK1G (human) = CAMK1G (human) (UniProt Q96NX5)
MAPK13 (human) = MAPK13 (human) (UniProt O15264)
RPS6KA2 KD2 (human) = RPS6KA2 KD2 (human) (UniProt Q15349)
MAP4K2 (human) = MAP4K2 (human) (UniProt Q12851)
ACVRL1 (human) = ACVRL1 (human) (UniProt P37023)
[1] = biological target: JAK1 JH2 pseudokinase (human) (UniProt P23458)
PRKD3 (human) = PRKD3 (human) (UniProt O94806)
PRKD3 (human), sequence (O94806 whole entry, looked up): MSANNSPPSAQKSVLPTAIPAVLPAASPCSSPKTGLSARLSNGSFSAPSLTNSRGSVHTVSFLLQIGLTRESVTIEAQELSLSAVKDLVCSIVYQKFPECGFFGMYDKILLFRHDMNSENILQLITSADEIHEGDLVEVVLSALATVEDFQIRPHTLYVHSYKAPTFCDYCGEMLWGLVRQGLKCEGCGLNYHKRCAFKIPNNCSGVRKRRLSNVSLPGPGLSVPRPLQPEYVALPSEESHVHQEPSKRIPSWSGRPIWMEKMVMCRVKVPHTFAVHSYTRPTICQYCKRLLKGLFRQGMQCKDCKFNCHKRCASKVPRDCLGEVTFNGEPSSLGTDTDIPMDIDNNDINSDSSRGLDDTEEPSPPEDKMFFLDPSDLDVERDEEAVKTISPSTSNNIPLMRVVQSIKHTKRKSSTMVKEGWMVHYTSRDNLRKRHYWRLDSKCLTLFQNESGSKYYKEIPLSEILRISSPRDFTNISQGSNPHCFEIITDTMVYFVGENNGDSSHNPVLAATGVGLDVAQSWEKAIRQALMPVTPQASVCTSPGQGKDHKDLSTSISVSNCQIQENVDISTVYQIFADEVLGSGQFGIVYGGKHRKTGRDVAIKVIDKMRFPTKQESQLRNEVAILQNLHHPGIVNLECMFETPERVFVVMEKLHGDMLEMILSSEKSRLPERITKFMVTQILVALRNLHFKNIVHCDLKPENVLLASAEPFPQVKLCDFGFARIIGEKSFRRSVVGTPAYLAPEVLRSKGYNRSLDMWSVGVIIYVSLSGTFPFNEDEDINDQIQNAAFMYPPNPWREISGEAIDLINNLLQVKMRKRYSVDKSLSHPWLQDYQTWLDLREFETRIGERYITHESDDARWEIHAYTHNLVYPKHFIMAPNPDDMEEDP

BLK (human) = BLK (human) (UniProt P51451)
CSK (human) = CSK (human) (UniProt P41240)
CDC2L2 (human) = CDC2L2 (human) (UniProt Q9UQ88)
CDC42BPG (human) = CDC42BPG (human) (UniProt Q6DT37)
[2] = tested on: FLT3 (human), P36888 [D835Y]
DAPK2 (human) = DAPK2 (human) (UniProt Q9UIK4)
MYO3B (human) = MYO3B (human) (UniProt Q8WXR4)
EPHA4 (human) = EPHA4 (human) (UniProt P54764)
CDK18 (human) = CDK18 (human) (UniProt Q07002)
CDK18 (human), sequence (Q07002 whole entry, looked up): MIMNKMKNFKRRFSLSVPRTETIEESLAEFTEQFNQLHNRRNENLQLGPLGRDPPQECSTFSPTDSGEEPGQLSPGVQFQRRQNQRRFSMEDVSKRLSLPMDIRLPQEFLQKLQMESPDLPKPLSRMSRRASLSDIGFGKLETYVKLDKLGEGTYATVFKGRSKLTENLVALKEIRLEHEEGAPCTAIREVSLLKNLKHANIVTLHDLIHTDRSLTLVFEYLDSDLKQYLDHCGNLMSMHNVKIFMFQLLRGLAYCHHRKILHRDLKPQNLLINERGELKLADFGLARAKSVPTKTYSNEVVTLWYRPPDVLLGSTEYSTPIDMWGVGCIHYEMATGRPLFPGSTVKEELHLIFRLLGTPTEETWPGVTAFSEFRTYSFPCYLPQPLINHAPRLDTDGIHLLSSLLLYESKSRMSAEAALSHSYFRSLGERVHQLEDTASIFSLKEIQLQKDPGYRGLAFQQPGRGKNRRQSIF

EPHB1 (human) = EPHB1 (human) (UniProt P54762)
EPHB1 (human), sequence (P54762 whole entry, looked up): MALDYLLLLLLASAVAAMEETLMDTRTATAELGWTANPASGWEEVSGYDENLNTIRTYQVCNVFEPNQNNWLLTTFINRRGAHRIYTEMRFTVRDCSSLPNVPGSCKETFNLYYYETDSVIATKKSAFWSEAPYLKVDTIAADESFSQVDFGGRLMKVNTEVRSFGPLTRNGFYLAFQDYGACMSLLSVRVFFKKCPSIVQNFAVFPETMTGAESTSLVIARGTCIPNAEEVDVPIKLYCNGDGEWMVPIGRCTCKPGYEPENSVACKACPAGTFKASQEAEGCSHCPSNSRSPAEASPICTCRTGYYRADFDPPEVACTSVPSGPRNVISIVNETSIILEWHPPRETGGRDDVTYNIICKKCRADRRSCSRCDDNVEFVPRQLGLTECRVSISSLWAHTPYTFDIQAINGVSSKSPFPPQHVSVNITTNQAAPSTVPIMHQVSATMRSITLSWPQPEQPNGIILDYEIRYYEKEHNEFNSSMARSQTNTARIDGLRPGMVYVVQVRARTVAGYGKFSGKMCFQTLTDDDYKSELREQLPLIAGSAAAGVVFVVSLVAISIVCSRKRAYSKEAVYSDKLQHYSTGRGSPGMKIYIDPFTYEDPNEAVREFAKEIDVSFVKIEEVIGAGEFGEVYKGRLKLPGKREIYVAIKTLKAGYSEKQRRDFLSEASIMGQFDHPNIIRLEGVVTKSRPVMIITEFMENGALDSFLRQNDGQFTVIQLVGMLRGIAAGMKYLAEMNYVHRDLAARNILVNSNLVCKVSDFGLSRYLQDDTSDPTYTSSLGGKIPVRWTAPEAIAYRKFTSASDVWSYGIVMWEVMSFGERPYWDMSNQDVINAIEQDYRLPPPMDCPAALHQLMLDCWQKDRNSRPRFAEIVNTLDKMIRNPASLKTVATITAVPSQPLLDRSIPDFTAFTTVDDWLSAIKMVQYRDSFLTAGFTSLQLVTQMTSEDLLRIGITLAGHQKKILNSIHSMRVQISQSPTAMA

LYN (human) = LYN (human) (UniProt P07948)
NLK (human) = NLK (human) (UniProt Q9UBE8)
[3] = tested on: EGFR (human), P00533 [G719C]
PRKACB (human) = PRKACB (human) (UniProt P22694)
STK17B (human) = STK17B (human) (UniProt O94768)
NUAK1 (human) = NUAK1 (human) (UniProt O60285)
BRSK2 (human) = BRSK2 (human) (UniProt Q8IWQ3)
AKT3 (human) = AKT3 (human) (UniProt Q9Y243)
STK39 (human) = STK39 (human) (UniProt Q9UEW8)
DCLK3 (human) = DCLK3 (human) (UniProt Q9C098)
IKBKE (human) = IKBKE (human) (UniProt Q14164)
[4] = tested on: FGFR3 (human), P22607 [G697C]
AURKC (human) = AURKC (human) (UniProt Q9UQB9)
AURKC (human), sequence (Q9UQB9 whole entry, looked up): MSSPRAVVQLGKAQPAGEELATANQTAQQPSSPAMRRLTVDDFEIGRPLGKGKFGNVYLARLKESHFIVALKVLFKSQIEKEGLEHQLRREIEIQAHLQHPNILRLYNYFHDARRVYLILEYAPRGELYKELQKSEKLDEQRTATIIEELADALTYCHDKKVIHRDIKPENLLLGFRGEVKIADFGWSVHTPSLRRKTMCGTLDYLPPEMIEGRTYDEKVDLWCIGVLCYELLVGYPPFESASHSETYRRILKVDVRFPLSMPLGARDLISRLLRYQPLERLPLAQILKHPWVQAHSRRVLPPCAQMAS

MAP3K3 (human) = MAP3K3 (human) (UniProt Q99759)
MAP3K3 (human), sequence (Q99759 whole entry, looked up): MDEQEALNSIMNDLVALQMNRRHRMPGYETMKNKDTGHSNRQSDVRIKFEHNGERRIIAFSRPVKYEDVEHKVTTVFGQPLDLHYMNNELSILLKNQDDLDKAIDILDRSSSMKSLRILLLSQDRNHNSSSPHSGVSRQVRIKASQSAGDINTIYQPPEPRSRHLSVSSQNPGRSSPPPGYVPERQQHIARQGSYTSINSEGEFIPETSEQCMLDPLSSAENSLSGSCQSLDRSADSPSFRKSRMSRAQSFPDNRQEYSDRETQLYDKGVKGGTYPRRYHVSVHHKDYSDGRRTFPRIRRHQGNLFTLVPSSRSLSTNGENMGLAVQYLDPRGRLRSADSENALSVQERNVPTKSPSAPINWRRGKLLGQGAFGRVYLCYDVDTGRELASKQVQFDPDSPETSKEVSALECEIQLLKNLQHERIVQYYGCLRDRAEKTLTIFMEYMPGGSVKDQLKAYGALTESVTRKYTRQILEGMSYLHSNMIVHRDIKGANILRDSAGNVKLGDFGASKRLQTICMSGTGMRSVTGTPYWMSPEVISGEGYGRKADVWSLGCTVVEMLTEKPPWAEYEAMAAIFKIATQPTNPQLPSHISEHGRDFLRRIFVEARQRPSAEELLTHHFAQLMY

TEC (human) = TEC (human) (UniProt P42680)
TEC (human), sequence (P42680 whole entry, looked up): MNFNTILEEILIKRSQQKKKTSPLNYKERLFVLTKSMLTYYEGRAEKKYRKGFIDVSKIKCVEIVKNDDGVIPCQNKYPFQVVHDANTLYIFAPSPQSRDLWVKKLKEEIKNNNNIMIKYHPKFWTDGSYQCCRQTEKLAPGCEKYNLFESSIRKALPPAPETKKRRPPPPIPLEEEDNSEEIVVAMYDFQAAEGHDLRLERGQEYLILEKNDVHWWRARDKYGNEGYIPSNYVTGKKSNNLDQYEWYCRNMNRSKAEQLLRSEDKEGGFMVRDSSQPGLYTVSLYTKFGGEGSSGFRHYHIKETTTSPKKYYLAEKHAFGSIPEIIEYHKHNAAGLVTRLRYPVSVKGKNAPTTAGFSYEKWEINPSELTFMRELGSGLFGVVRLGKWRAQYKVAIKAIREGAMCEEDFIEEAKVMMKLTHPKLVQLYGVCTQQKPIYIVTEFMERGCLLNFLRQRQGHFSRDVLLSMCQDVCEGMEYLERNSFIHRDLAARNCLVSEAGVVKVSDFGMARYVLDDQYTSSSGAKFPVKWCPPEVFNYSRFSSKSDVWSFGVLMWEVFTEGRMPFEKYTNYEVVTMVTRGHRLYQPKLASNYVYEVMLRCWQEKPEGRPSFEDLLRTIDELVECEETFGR

CHUK (human) = CHUK (human) (UniProt O15111)
CAMK2G (human) = CAMK2G (human) (UniProt Q13555)
PIP4K2B (human) = PIP4K2B (human) (UniProt P78356)
MAPK1 (human) = MAPK1 (human) (UniProt P28482)
TXK (human) = TXK (human) (UniProt P42681)
STK16 (human) = STK16 (human) (UniProt O75716)

NEK7 (human), sequence (Q8TDX7 whole entry, looked up): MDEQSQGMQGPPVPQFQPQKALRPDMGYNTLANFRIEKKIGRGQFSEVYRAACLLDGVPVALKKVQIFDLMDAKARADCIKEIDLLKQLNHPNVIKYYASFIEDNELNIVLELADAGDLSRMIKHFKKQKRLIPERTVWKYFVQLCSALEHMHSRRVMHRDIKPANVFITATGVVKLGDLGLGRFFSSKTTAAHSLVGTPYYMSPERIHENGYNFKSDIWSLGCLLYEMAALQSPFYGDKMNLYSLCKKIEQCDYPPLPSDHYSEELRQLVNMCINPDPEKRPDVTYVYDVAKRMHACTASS
MAP4K2 (human), sequence (Q12851 whole entry, looked up): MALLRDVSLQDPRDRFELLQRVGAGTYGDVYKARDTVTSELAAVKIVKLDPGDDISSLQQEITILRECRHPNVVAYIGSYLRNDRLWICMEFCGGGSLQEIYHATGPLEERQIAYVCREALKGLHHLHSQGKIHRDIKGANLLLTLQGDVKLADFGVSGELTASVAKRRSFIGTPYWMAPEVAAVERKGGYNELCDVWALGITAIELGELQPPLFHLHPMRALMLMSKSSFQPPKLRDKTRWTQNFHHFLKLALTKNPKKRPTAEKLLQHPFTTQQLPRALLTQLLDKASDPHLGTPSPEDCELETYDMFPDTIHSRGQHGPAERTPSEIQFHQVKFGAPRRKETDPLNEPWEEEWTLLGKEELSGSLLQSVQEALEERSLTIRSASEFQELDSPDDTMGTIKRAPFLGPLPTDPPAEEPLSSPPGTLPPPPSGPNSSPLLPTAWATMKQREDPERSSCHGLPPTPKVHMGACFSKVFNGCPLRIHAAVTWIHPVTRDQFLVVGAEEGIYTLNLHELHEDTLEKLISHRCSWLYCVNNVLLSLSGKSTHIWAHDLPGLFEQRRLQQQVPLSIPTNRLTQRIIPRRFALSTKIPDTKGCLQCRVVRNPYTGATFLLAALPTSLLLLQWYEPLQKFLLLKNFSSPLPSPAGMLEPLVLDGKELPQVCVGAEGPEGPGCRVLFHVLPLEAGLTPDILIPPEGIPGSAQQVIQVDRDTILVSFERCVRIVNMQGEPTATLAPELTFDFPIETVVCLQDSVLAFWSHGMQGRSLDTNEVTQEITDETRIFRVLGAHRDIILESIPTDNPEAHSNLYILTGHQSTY

Row | Structure (SMILES) | kinase still bound, per cent of control (NEK7 (human)) [%] | kinase still bound, per cent of control (IKBKB (human)) [%] | kinase still bound, per cent of control (CAMK1G (human)) [%] | kinase still bound, per cent of control (MAPK13 (human)) [%] | kinase still bound, per cent of control (RPS6KA2 KD2 (human)) [%] | kinase still bound, per cent of control (MAP4K2 (human)) [%] | kinase still bound, per cent of control (ACVRL1 (human)) [%] | kinase still bound, per cent of control [1] [%] | kinase still bound, per cent of control (PRKD3 (human)) [%] | kinase still bound, per cent of control (BLK (human)) [%] | kinase still bound, per cent of control (CSK (human)) [%] | kinase still bound, per cent of control (CDC2L2 (human)) [%] | kinase still bound, per cent of control (CDC42BPG (human)) [%] | kinase still bound, per cent of control [2] [%] | kinase still bound, per cent of control (DAPK2 (human)) [%] | kinase still bound, per cent of control (MYO3B (human)) [%] | kinase still bound, per cent of control (EPHA4 (human)) [%] | kinase still bound, per cent of control (CDK18 (human)) [%] | kinase still bound, per cent of control (EPHB1 (human)) [%] | kinase still bound, per cent of control (LYN (human)) [%] | other results
1 | CNC(=O)Nc1ccc(-c2nc(N3CC4CCC(C3)O4)c3cnn(C4CCC5(CC4)OCCO5)c3n2)cc1 | 100 | 79 | 100 | 16 | 93 | 100 | 100 | 83 | 100 | 96 | 100 | 97 | 84 | 99 | 100 | 91 | 100 | 92 | 90 | 85 | kinase still bound, per cent of control (NLK (human)): 85%; kinase still bound, per cent of control [3]: 80%; kinase still bound, per cent of control (PRKACB (human)): 87%; kinase still bound, per cent of control (STK17B (human)): 100%; kinase still bound, per cent of control (NUAK1 (human)): 82%; kinase still bound, per cent of control (BRSK2 (human)): 100%; kinase still bound, per cent of control (AKT3 (human)): 86%; kinase still bound, per cent of control (STK39 (human)): 100%; kinase still bound, per cent of control (DCLK3 (human)): 100%; kinase still bound, per cent of control (IKBKE (human)): 100%; kinase still bound, per cent of control [4]: 74%; kinase still bound, per cent of control (AURKC (human)): 86%; kinase still bound, per cent of control (MAP3K3 (human)): 100%; kinase still bound, per cent of control (TEC (human)): 84%; kinase still bound, per cent of control (CHUK (human)): 100%; kinase still bound, per cent of control (CAMK2G (human)): 100%; kinase still bound, per cent of control (PIP4K2B (human)): 100%; kinase still bound, per cent of control (MAPK1 (human)): 87%; kinase still bound, per cent of control (TXK (human)): 94%; kinase still bound, per cent of control (STK16 (human)): 98%
2 | C=CC(=O)Nc1ccc(C(=O)c2sc(Nc3ccc(N4CCN(C)CC4)cc3OC)nc2N)cc1 | 100 | 85 | 8.2 | 100 | 0.25 | 4.6 | 100 | 65 | 54 | 100 | 87 | 87 | 93 | 23 | 2.8 | 83 | 96 | 100 | 98 | 100 | kinase still bound, per cent of control (NLK (human)): 76%; kinase still bound, per cent of control [3]: 3%; kinase still bound, per cent of control (PRKACB (human)): 92%; kinase still bound, per cent of control (STK17B (human)): 100%; kinase still bound, per cent of control (NUAK1 (human)): 100%; kinase still bound, per cent of control (BRSK2 (human)): 72%; kinase still bound, per cent of control (AKT3 (human)): 73%; kinase still bound, per cent of control (STK39 (human)): 0%; kinase still bound, per cent of control (DCLK3 (human)): 3.8%; kinase still bound, per cent of control (IKBKE (human)): 84%; kinase still bound, per cent of control [4]: 77%; kinase still bound, per cent of control (AURKC (human)): 68%; kinase still bound, per cent of control (MAP3K3 (human)): 65%; kinase still bound, per cent of control (TEC (human)): 98%; kinase still bound, per cent of control (CHUK (human)): 59%; kinase still bound, per cent of control (CAMK2G (human)): 1.6%; kinase still bound, per cent of control (PIP4K2B (human)): 32%; kinase still bound, per cent of control (MAPK1 (human)): 100%; kinase still bound, per cent of control (TXK (human)): 100%; kinase still bound, per cent of control (STK16 (human)): 50%
3 | COc1cc2c(Nc3ccc(NC(=O)c4ccccc4)cc3)ncnc2cc1OCCCN1CCOCC1 | 100 | 100 | 66 | 40 | 100 | 39 | 85 | 32 | 100 | 0.5 | 7.9 | 6.9 | 72 | 44 | 90 | 100 | 98 | 75 | 100 | 7.2 | kinase still bound, per cent of control (NLK (human)): 100%; kinase still bound, per cent of control [3]: 0.45%; kinase still bound, per cent of control (PRKACB (human)): 100%; kinase still bound, per cent of control (STK17B (human)): 100%; kinase still bound, per cent of control (NUAK1 (human)): 92%; kinase still bound, per cent of control (BRSK2 (human)): 100%; kinase still bound, per cent of control (AKT3 (human)): 100%; kinase still bound, per cent of control (STK39 (human)): 100%; kinase still bound, per cent of control (DCLK3 (human)): 96%; kinase still bound, per cent of control (IKBKE (human)): 62%; kinase still bound, per cent of control [4]: 100%; kinase still bound, per cent of control (AURKC (human)): 23%; kinase still bound, per cent of control (MAP3K3 (human)): 18%; kinase still bound, per cent of control (TEC (human)): 76%; kinase still bound, per cent of control (CHUK (human)): 100%; kinase still bound, per cent of control (CAMK2G (human)): 100%; kinase still bound, per cent of control (PIP4K2B (human)): 100%; kinase still bound, per cent of control (MAPK1 (human)): 72%; kinase still bound, per cent of control (TXK (human)): 99%; kinase still bound, per cent of control (STK16 (human)): 100%
